Data on 16 compounds can be found in patent US20240270821A1, “GIP/GLP1/GCG TRI-RECEPTOR AGONISTS AND USES THEREOF” (priority 2023, published 2024).

Type in all cases: cell-based
For assay [1], the target named is hGcgR (Homo sapiens, UniProt P47871). In words: Functional cAMP activation in the presence of 0.1% casein (no HSA). The settings on record: read-out: Relative cAMP EC50, hGcgR.
Experimental: After a 30-minute incubation at 37° C., the resulting increase in intracellular cAMP is quantitatively determined using the CisBio CAMP Dynamic 2 HTRF Assay Kit (62AM4PEJ). Briefly, cAMP levels within the cell are detected by adding the cAMP-d2 conjugate in cell lysis buffer followed by the antibody anti-cAMP-Eu^3+-Cryptate, also in cell lysis buffer.
Intracellular cAMP levels are determined by extrapolation using a standard curve. Dose response curves of compounds are plotted as the percentage of stimulation normalized to minimum (buffer only) and maximum (maximum concentration of each control ligand) values and analyzed using a four parameter non-linear regression fit with a variable slope (Genedata Screener 13). EC50 is the concentration of compound causing half-maximal simulation in a dose response curve. Each relative EC50 value for the Geometric mean calculation is determined from a curve fitting.
The target of assay [2] is human GcgR (Homo sapiens, UniProt P47871). The experiment in a line: Functional cAMP activity in the presence of 1% HSA. The note with it: read-out: cAMP Rel EC50, hGcgR.
Chain of human GcgR (P47871 26-477): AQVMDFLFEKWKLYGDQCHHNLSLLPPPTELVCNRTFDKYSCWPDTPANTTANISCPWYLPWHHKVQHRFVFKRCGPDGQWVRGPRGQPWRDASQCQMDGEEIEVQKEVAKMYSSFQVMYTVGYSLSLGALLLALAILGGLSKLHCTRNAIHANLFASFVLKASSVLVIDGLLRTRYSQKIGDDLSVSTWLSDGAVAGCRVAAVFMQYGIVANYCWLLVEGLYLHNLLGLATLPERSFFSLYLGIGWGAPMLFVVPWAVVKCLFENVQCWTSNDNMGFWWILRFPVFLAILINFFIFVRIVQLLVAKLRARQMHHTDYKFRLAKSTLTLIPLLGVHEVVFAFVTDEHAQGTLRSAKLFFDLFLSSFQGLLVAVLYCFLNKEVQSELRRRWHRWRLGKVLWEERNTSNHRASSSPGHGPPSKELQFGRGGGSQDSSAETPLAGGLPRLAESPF
Assay [3] concerns the target T1, hGIPR (Homo sapiens, UniProt P48546).
T1 sequence (P48546 22-466): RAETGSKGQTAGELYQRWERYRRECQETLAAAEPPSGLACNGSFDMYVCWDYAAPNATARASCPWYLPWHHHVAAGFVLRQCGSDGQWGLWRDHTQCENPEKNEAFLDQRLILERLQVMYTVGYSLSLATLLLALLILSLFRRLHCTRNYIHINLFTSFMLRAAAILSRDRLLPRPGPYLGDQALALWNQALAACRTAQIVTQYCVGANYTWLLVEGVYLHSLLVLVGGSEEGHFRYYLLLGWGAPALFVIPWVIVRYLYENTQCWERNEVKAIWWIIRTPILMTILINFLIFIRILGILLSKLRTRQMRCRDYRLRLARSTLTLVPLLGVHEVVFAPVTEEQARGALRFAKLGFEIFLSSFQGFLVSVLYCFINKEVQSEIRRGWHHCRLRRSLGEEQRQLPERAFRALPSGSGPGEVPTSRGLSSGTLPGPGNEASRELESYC
The experiment in a line: Functional cAMP activity in the presence of 1% HSA. The note with it: read-out: cAMP Rel EC50, hGIPR.

In assay [4] the target is T2, hGLP-1R (Homo sapiens, UniProt P43220). The experiment in a line: Functional cAMP activation in the presence of 0.1% casein (no HSA). The settings on record: read-out: Relative cAMP EC50, hGLP-1R.
T2 sequence (P43220 24-463): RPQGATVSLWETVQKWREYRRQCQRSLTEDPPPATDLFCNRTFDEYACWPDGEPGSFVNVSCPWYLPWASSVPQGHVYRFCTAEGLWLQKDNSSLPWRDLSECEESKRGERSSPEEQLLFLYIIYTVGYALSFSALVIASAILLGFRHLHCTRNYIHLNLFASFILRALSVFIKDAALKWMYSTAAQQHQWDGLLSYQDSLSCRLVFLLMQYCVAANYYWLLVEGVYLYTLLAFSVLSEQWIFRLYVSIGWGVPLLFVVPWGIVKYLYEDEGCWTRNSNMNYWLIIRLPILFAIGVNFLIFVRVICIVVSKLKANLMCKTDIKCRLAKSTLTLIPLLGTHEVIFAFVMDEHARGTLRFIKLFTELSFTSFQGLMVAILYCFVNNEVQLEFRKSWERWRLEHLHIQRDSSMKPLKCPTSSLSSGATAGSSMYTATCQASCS
The target of assay [5] is T2, hGLP-1R. In words: Functional cAMP activity in the presence of 1% HSA. The settings on record: read-out: cAMP Rel EC50, hGLP-1R.
Assay [6] has as its target T1, hGIPR. In words: Functional cAMP activation in the presence of 0.1% casein (no HSA). The settings on record: read-out: Relative cAMP EC50, hGIPR.
[7] abbreviates: in the presence of 0.1% casein (no HSA), geometric mean of relative EC50.
[8] abbreviates: HEK-293 clonal cell line, 1% HSA, geometric mean of relative EC50.
[9] abbreviates: in the presence of 0.1% casein (no HSA), geometric mean.
Where [10] appears, read: 0.1% casein, no HSA, geometric mean.

pEC50: −log10 of the molar value. Like-named read-outs stand apart in the source and are kept apart here. Starred links: 1 amine or outer side, 2 acyl side, 3 side chain; linkers in the order of their positions; H or OH if unused. Non-standard residues stand in square brackets, D forms with d. Groups on a side chain read outwards from the residue. No end group written: not given here. *: point of attachment. C20 diacid = O=C(O)CCCCCCCCCCCCCCCCCCC(=O)*; C18 diacid = O=C(O)CCCCCCCCCCCCCCCCC(=O)*; αMePhe(2-F) = C[C@](N)(Cc1ccccc1F)C(=O)O; γGlu = O=C(O)[C@H](CCC(=O)[*:2])N[*:1]; αMe4Pal = C[C@](N)(Cc1ccncc1)C(=O)O; αMeY = C[C@](N)(Cc1ccc(O)cc1)C(=O)O; 4Pal = N[C@@H](Cc1ccncc1)C(=O)O; αMeL = CC(C)C[C@](C)(N)C(=O)O; αMeS = C[C@](N)(CO)C(=O)O; Orn = NCCC[C@H](N)C(=O)O; AEEA = NCCOCCOCC(=O)O; Aib = CC(C)(N)C(=O)O
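Wherever Relative cAMP EC50, hGIPR is given: intracellular cAMP rise after 30 min at 37 °C read by HTRF against a standard curve, scaled between buffer alone (0%) and top control ligand concentration (100%), four-parameter fit.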
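Wherever Relative cAMP EC50, hGLP-1R is given: intracellular cAMP rise after 30 min at 37 °C read by HTRF, normalized between buffer only (0%) and maximal control ligand (100%), four-parameter variable-slope fit.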
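Wherever Relative cAMP EC50, hGcgR is given: intracellular cAMP rise after 30 min at 37 °C, read by HTRF against a cAMP standard curve, scaled from buffer only (0%) to maximal control ligand response (100%).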

Chain of hGcgR (P47871 26-477): as the sequence (P47871 26-477) above

In the case of “H-Y[Aib]QGT[αMePhe(2-F)]TSD[4Pal]SI[αMeL]LDKK([γGlu-γGlu-C18 diacid])AQ[Aib][Orn]FIEYLTEGGPSSGEPPPEGSEE-NH2 [Example 652]”, the pEC50 (as a rule, the negative decadic logarithm of the EC50, by convention in mol/L) in assay [1] (setting [7]) is 7.82; in assay [2] (setting [8]) it was 6.12; in assay [3] (setting [8]), 8.72; in assay [4] (setting [7]), 9.37; in assay [5] (setting [8]) it was 7.57; in assay [6] (setting [7]), 10.47.

As to “H-Y[Aib]QGTFTSD[4Pal]SK[αMeL]LDKK([γGlu-γGlu-C18 diacid])AQ[Aib]AFIEYLIE[Aib]GPSSGAPPPSGS-NH2 [Example 907]”, the pEC50 in assay [1] (setting [9]) is 8.24; in assay [2] it was 5.92; in assay [3], 8.05; in assay [4] (setting [9]), 8.94; in assay [5] it was 6.91; in assay [6] (setting [9]) it was 9.99.

Take “H-Y[Aib]QGT[αMePhe(2-F)]TSD[4Pal][αMeS]I[αMeL]LD[Orn]K([AEEA-γGlu-C18 diacid])AQ[αMe4Pal]EFI[dE][αMeY]LIEGGPSSGAPPPEGE-NH2 [Example 1148]”: the pEC50 in assay [1] (setting [9]) was 8.80; in assay [2], 6.76; in assay [3], 9.06; in assay [4] (setting [9]), 9.52; in assay [5], 7.35; in assay [6] (setting [9]), 11.10.

On to “H-Y[Aib]QGT[αMePhe(2-F)]TSD[4Pal]SI[αMeL]LDKK([γGlu-γGlu-C18 diacid])AQ[Aib]AFIEYLTEGGPSSGEPPPSGSEE-NH2 [Example 633]”, for which the pEC50 in assay [1] (setting [7]) was 7.99; in assay [2] (setting [8]), 5.82; in assay [3] (setting [8]), 8.79; in assay [4] (setting [7]) it was 9.38; in assay [5] (setting [8]), 7.39; in assay [6] (setting [7]), 10.73.

For the compound “H-Y[Aib]QGT[αMePhe(2-F)]TSD[4Pal][αMeS]I[αMeL]LD[Orn]K([γGlu-γGlu-C18 diacid])AQ[Aib][Orn]FI[dE][αMeY]LSEGGPSSGEPPPSGAEE-NH2 [Example 567]”, the pEC50 was 8.23 in assay [1]; 6.28 in assay [2]; 7.87 in assay [3]; 8.97 in assay [4]; 6.99 in assay [5]; 9.78 in assay [6].

As for “H-Y[Aib]QGT[αMePhe(2-F)]TSD[4Pal]SI[αMeL]LD[Orn]K([AEEA-γGlu-C18 diacid])AQ[αMe4Pal][Orn]FI[dE][αMeY]LIEGGPSSGEPPPSGS-NH2 [Example 706]”, the negative logarithm of the EC50 (pEC50) in assay [1] was 8.66; in assay [2], 6.62; in assay [3] it was 9.04; in assay [4] it was 9.72; in assay [5] it was 7.63; in assay [6], 11.04.

Turning to “H-Y[Aib]QGT[αMePhe(2-F)]TSD[4Pal]SI[αMeL]LDKK([γGlu-γGlu-C18 diacid])AQ[Aib][Orn]FIEYLAEGGPSSGEPPPEGSEE-NH2 [Example 650]”, the pEC50 in assay [1] (setting [7]) was 7.79; in assay [2] (setting [8]), 6.24; in assay [3] (setting [8]) it was 8.51; in assay [4] (setting [7]) it was 9.19; in assay [5] (setting [8]) it was 7.50; in assay [6] (setting [7]), 10.09.

With “H-Y[Aib]QGT[αMePhe(2-F)]TSD[4Pal][αMeS]ILLD[Orn]K([γGlu-γGlu-C18 diacid])AQ[Aib][Orn]FI[dE]YLIEGGPSSGEPPPEGAEE-NH2 [Example 604]”, the pEC50 in assay [1] is 8.26; in assay [2], 6.37; in assay [3] it was 8.32; in assay [4] it was 9.15; in assay [5], 7.29; in assay [6], 9.79.

With “H-Y[Aib]QGTFTSDFS[Orn][αMeL]LDKK([AEEA-γGlu-C20 diacid])AQ[Aib]AFIEYLLAGGPSSGEPPPEGE-NH2 [Example 102]”, the pEC50 in assay [1] (setting [9]) is 8.01; in assay [2], 5.57; in assay [3] it was 6.80; in assay [4] (setting [9]), 8.47; in assay [5], 5.97; in assay [6] (setting [9]) it was 9.23.

For “Y[Aib]QGT[αMePhe(2-F)]TSD[4Pal][αMeS]I[αMeL]LD[Orn]K([AEEA-γGlu-C18 diacid])AQ[αMe4Pal]EFI[dE][αMeY]LIEGGPSSGEPPPEGTGE-NH2 [Example 763]”, the negative-log EC50 (pEC50) in assay [1] is 8.80; in assay [2], 6.65; in assay [3] it was 8.94; in assay [4], 9.52; in assay [5], 7.37; in assay [6], 11.14.

As to “H-Y[Aib]QGTFTSDFS[Orn][αMeL]LDKK([AEEA-γGlu-C18 diacid])AQ[Aib]AFIEWLLEGGHSSGEPPPEGS-NH2 [Example 127]”, the pEC50 in assay [1] (setting [9]) was 8.36; in assay [2] it was 6.00; in assay [3], 7.20; in assay [4] (setting [9]), 8.32; in assay [5], 6.00; in assay [6] (setting [9]) it was 9.51.

“H-Y[Aib]QGT[αMePhe(2-F)]TSD[4Pal]SI[αMeL]LD[Orn]K([γGlu-γGlu-C18 diacid])AQ[αMe4Pal][Orn]FI[dE][αMeY]LIEGGPSSGEPPPESE-NH2 [Example 685]”: the pEC50 in assay [1] is 8.66; in assay [2], 6.80; in assay [3], 9.30; in assay [4] it was 9.51; in assay [5], 7.73; in assay [6], 11.09.

“Y[Aib]QGTFTSDYSI[αMeL]LDKQAAK([AEEA-AEEA-γGlu-C20 diacid])QFVEWLLAGGPSSGEPPPGEG-NH2 [Example 320]”: the pEC50 in assay [1] (setting [9]) was 8.16; in assay [2] it was 5.93; in assay [3] it was 7.26; in assay [4] (setting [9]) it was 8.59; in assay [5], 6.48; in assay [6] (setting [9]), 9.56.

On to “H-Y[Aib]QGTFTSD[4Pal]SK[αMeL]LDKK([AEEA-γGlu-C18 diacid])AQ[Aib]AFIEYLIE[Aib]GPSSGAPPPSGSEEE-NH2 [Example 903]”, for which the pEC50 was 7.89 in assay [1] (setting [9]); 5.79 in assay [2]; 7.51 in assay [3]; 8.57 in assay [4] (setting [9]); 6.41 in assay [5]; 9.56 in assay [6] (setting [9]).

As to “H-Y[Aib]QGT[αMePhe(2-F)]TSD[4Pal][αMeS]I[αMeL]LD[Orn]K([γGlu-γGlu-C18 diacid])AQ[Aib][Orn]FI[dE]YLIEGGPSSGEPPPSGTGE-NH2 [Example 523]”, the negative-log EC50 (pEC50) in assay [1] is 8.42; in assay [2] it was 6.63; in assay [3], 9.06; in assay [4], 9.32; in assay [5], 7.57; in assay [6], 10.68.

Turning to `CC[C@H](C)[C@H](NC(=O)[C@H](CC(C)C)NC(=O)[C@](C)(Cc1ccc(O)cc1)NC(=O)[C@@H](CCC(=O)O)NC(=O)[C@@H](NC(=O)[C@H](Cc1ccccc1)NC(=O)[C@H](CCC(=O)O)NC(=O)[C@](C)(Cc1ccncc1)NC(=O)[C@H](CCC(N)=O)NC(=O)[C@H](C)NC(=O)[C@H](CCCCNC(=O)COCCOCCNC(=O)COCCOCCNC(=O)CC[C@H](NC(=O)CCCCCCCCCCCCCCCCC(=O)O)C(=O)O)NC(=O)[C@H](CCCN)NC(=O)[C@H](CC(=O)O)NC(=O)[C@H](CC(C)C)NC(=O)[C@](C)(CC(C)C)NC(=O)[C@@H](NC(=O)[C@](C)(CO)NC(=O)[C@H](Cc1ccncc1)NC(=O)[C@H](CC(=O)O)NC(=O)[C@H](CO)NC(=O)[C@@H](NC(=O)[C@](C)(Cc1ccccc1F)NC(=O)[C@@H](NC(=O)CNC(=O)[C@H](CCC(N)=O)NC(=O)C(C)(C)NC(=O)[C@@H](N)Cc1ccc(O)cc1)[C@@H](C)O)[C@@H](C)O)[C@@H](C)CC)[C@@H](C)CC)C(=O)N[C@@H](CCC(=O)O)C(=O)NCC(=O)NCC(=O)N1CCC[C@H]1C(=O)N[C@@H](CO)C(=O)N[C@@H](CO)C(=O)NCC(=O)N[C@@H](C)C(=O)N1CCC[C@H]1C(=O)N1CCC[C@H]1C(=O)N1CCC[C@H]1C(=O)N[C@@H](CO)C(=O)NCC(=O)N[C@@H](CO)C(N)=O` [Example 1207], the pEC50 in assay [1] (setting [10]) is 8.11; in assay [2], 6.33; in assay [3], 9.20; in assay [4] (setting [10]) it was 9.52; in assay [5], 7.40; in assay [6] (setting [10]), 11.19.
